# From paper PMC3016232 (Cancer Chemotherapy and Pharmacology, 2010)
# Assays:
# clinical = format: in vivo, human
# [1] = format: in vivo, human
# UGT1A = assay: Formation of SN-38G from SN-38 in pooled human liver microsomes; format: in vitro ADME; details: SN-38 5 μM, 30 min, microsomal protein 0.8 mg/mL
# UGT1A1 mRNA = UGT1A1 mRNA levels in HCT116 cells by quantitative RT-PCR; format: cell-based, human; details: HCT 116 cells; methimazole 25–100 μM; up to ~48 h
# [2] = mean of the courses with or without methimazole, plasma
# [3] = courses with methimazole, plasma
# [4] = courses without methimazole, plasma
smiles,measurement,setting,value
CCc1c2c(nc3ccc(OC(=O)N4CCC(N5CCCCC5)CC4)cc13)-c1cc3c(c(=O)n1C2)COC(=O)[C@]3(O)CC [irinotecan],AUC,"clinical; male, human, in vivo",16100 ng·h/mL
same,Irinotecan-related toxicity,[1]; all courses,mild
same,mean absolute neutrophil count nadir,[1]; mean of all courses,4.2e+09 L⁻¹
"CCc1c2c(nc3ccc(OC(=O)N4CCC(NCCCCC(=O)O)CC4)cc13)-c1cc3c(c(=O)n1C2)COC(=O)C3(O)CC (centres unmarked) [APC, 7-Ethyl-10-[4-N-(5-aminopentanoic acid)-1-piperidino]-carbonyloxy-camptothecin]",mean exposure (AUC) to APC,clinical; [2],"3,018 ng × h/mL"
CCc1c2c(nc3ccc(O[C@@H]4O[C@H](C(=O)O)[C@@H](O)[C@H](O)[C@H]4O)cc13)-c1cc3c(c(=O)n1C2)COC(=O)[C@]3(O)CC [SN-38G],mean SN-38G AUC,clinical; [3],"1,255 ng × h/mL"
same,mean SN-38G AUC,clinical; [4],753 ng·h/mL
CC(=O)N1CCN(c2ccc(OCC3COC(Cn4ccnc4)(c4ccc(Cl)cc4Cl)O3)cc2)CC1 (centres unmarked) [ketoconazole],reduction of SN-38G formation,UGT1A; ketoconazole 25 μM,43%
Cn1cc[nH]c1=S [methimazole],induction of UGT1A1 mRNA levels compared to untreated control cells,UGT1A1 mRNA,15–18 fold
same,effect on SN-38G formation,UGT1A; methimazole 37.5 μM,did not decrease
"CCc1c2c(nc3ccc(O)cc13)-c1cc3c(c(=O)n1C2)COC(=O)[C@]3(O)CC [SN-38, 7-Ethyl-10-hydroxy camptothecin]",mean relative extent of glucuronidation (ratio of SN-38G over SN-38),clinical; courses with methimazole,10.1
same,mean SN-38 AUC,clinical; [3],125 ng·h/mL
same,mean relative extent of glucuronidation (ratio of SN-38G over SN-38),clinical; courses without methimazole,6.85
same,mean SN-38 AUC,clinical; [4],110 ng·h/mL
"CCc1c2c(nc3ccc(OC(=O)N4CCC(N)CC4)cc13)-c1cc3c(c(=O)n1C2)COC(=O)[C@]3(O)CC [NPC, 7-Ethyl-10-[4-amino-1-piperidino]-carbonyloxycamptothecin]",mean exposure (AUC) to NPC,clinical; [2],32.3 ng·h/mL
